Reference: US20100055169A1, “CATIONIC LIPIDS AND USES THEREOF” (ABBOTT LABORATORIES, priority 2008, published 2010)

What was measured:
Format in all cases: physicochemical
Conditions in all cases: lipid:siRNA 25:1
[1] = RiboGreen assay of siRNA encapsulation efficiency, in vivo formulations of Lipid-Based Particles
Protocol: (§1) RNA concentration and encapsulation efficiency were determined using a Quant-iT® Ribogreen RNA reagent and kit available from Invitrogen. The siRNA was released from the Lipid-Based Particle using one of the following reagents: ethanol, Triton X-100, or phenol/chloroform. The siRNA concentration is quantified using fluorescent reading at 480 nm/520 nm.
The lipid solution was prepared (10 mg/ml) by dissolving the lipid in 200 proof ethanol. The lipid mixture solution is prepared according to the above composition in Table 5.
An siRNA (TetR_ODC—12, G.G.G.G.A.A.A.G.C.U.G.G.C.A.A.G.A.U.U.U.U SEQ ID NO: 1) (ThermoFisher) solution is prepared in a concentration of 10 mg/ml by dissolving 10 mg siRNA in 1 ml of DNAse/RNAse-free distilled water.
(§2) A round bottom flask was submerged into a 65° C. water bath. Citrate buffer (37.5 ml) of pH 4.0 was pipetted into the flask. The solution was stirred by a magnetic stirring bar at a speed of 900 rpm. Both the pH 4.0 citrate buffer and the lipid solution were pre-warmed in the 65° C. water bath for about 3 minutes. A siRNA solution (0.5 ml) was pipetted into the pH 4.0 citrate buffer. The 12.5 ml lipid mixture solution was injected through a 27 gauge needle into the citrate buffer in about 30 seconds. The needle tip was inserted into the solution during the injection. The resulting solution was stirred for 5 minutes at a speed of 900 rpm. The flask was pulled up from the water bath and a 50 ml pH 7.4 PBS buffer was added into the flask. The final solution was further mixed at a speed of 900 rpm for 5 minutes. For the diafiltration process, a dialysis filter (Millipore, 100K, Cat#PXB100C50) was used to remove ethanol in the above solution. When the volume was reduced to 20 ml during the initial diafiltration, 20 ml of pH 7.4 PBS was added to the sample solution. The diafiltration was continued until the volume was reduced to 20 ml. The diafiltration process was repeated 4 times. The volume of the sample solution was reduced to about 12 ml and pH 7.4 PBS was added to make the final volume of 15 ml. The 15 ml solution was filtered sequentially through the 0.45 and 0.22 μm sterile PVDF membrane filters (Millipore) and immediately transferred into a sterile vial.

[2] = Particle sizing assay (Zetasizer Nano ZS), in vivo formulations
Protocol: as §2
For measurements of particle sizes and size distributions (PDI), lipid-based particles were prepared as described above. The particle solution (60 μL) was pipetted into a disposable cuvette (UVette, Eppendorf, cat#952010051) and measured in the “General Purpose” mode. Attenuator and position were optimized by the device. Measurements were performed using a Zetasizer Nano ZS (Malvern Instruments) equipped with a 4 mW He—Ne laser at a wavelength of 633 nm at 25° C. Scattered light was detected at a 173° backward scattering angle. The viscosity and refractive index of water at 25° C. was used for data analysis with the Dispersion Technology Software 5.00 (Malvern Instruments).

[3] = RiboGreen assay of siRNA encapsulation efficiency, in vitro formulations of Lipid-Based Particles
Protocol: The mixing solution of cationic lipids, cholesterol, non-cationic lipids and PEG-lipids was prepared in ethanol (total concentration at 10 mg/mL). siSTABLE (purchased from ThermoFisher) (sense-5′ GGGGAAAGCUGGCAAGAUUUU-3′SEQ ID NO. 1, antisense-5′-AAUCUUGCCAGCUUUCCCCUU-3′ SEQ ID NO: 2) % stock solution was prepared in 10 mg/mL of solution by dissolving 10 mg siRNA in 1 mL of RNAse-free UltraPure Water. The calculated amount of siRNA solution was added to 1 mL of citrate buffer (pH 4.0, 20 mM), to provide an siRNA concentration of 0.2 mg/mL, and warmed to 60 C. The calculated amount of lipid solution was warmed to 60 C, transferred to a 0.5 mL syringe with 28½ gauge needle, and injected into the citrate buffer with stirring at 60 C. After 3 minutes, 3 mL of PBS solution at room temperature (pH 7.4) was added into the lipid mixture with stirring. The Lipid-Based Particle solution was cooled to room temperature.
(§3) The siRNA concentrations were measured using Quanti-iT RiboGreen RNA reagent (Molecular Probes, (R11490)). Vesicle sizes were characterized by dynamic light scattering with a DynaPro™ Plate Reader (Wyatt Technology) in 96-well half-area UV plate (Coring) after diluting the formulation sample (20 μL) in phosphate buffered saline (80 μL) at a pH of about 7-8. A 1% agarose gel-based assay was used for analyzing nuclease degradation and protection. Encapsulation efficiency (EE) was calculated using data obtained from a RiboGreen assay.
as §1

[4] = Particle sizing by dynamic light scattering (DynaPro plate reader), in vitro formulations
Protocol: as §3
Particle sizes and size distributions (PDI) were characterized by using dynamic light scattering (DLS). A DLS plate reader (Dynapro™, Wyatt Technology) was used for the DLS measurement. This DLS plate reader uses an 830 nm laser and the scattering angle is 158°. It also can control temperature from 4° C. to 70° C. A 96-well format was employed for the samples.
Samples for DLS analysis were prepared by mixing 20 μL of each sample stock solution with 80 μL PBS directly in the 96-well plate (#3697, Corning). Sample mixing was accomplished using a microplate shaker (Orbis, Mikura Ltd.). Plates were read at 20° C. with an acquisition time of 50 seconds for each sample, and data was analyzed with Wyatt Technology's Dynamics V6 software. To rule out potential multiple scattering artifacts, a second plate at 4-fold reduced sample concentrations was independently prepared by mixing 5 μL stock solutions with 95 μL PBS. Under our experimental conditions the results at the two concentrations were very similar, and the final reported result for each sample represents the average of values obtained from the two plates.

[5] = in vivo formulation A: Cationic lipid/Example 73/DSPC/Chol 45/10/15/30 wt %
[6] = in vitro formulation a: Cationic lipid/Example 73/DSPC/Chol 45/10/15/30 wt %
[7] = in vitro formulation b: Cationic lipid/PEG-cholesterol/DSPC/Chol 45/10/15/30 wt %
[8] = in vivo formulation I: Cationic lipid/PEG-DPPE/DSPC/Chol 45/10/15/30 wt %
[9] = in vivo formulation J: Cationic lipid/PEG-DSPE/DSPC/Chol 45/10/15/30 wt %
[10] = in vivo formulation L: Cationic lipid/PEG-DPG/DSPC/Chol 45/10/15/30 wt %

CCCCC/C=C\C/C=C\CCCCCCCCOCC(CCN1CCOCC1)OCCCCCCCC/C=C\C/C=C\CCCCC (stereo not shown) [Example 2, 4-{3,4-bis[(9Z,12Z)-octadeca-9,12-dienyloxy]butyl}morpholine]
% Encapsulation Efficiency [1, 5]: 83.6% | Size [2, 5]: 89 nm | Size distribution (PDI) [2, 5]: (0.1)

CCCCC/C=C\C/C=C\CCCCCCCCOCC(CCN(CC)CC)OCCCCCCCC/C=C\C/C=C\CCCCC (stereo not shown) [Example 3, N,N-diethyl-3,4-bis[(9Z,12Z)-octadeca-9,12-dienyloxy]butan-1-amine]
% Encapsulation Efficiency [3, 6]: 97.2% | % Encapsulation Efficiency [3, 7]: 96.9% | Size [4, 6]: 192 nm | Size [4, 7]: 113.4 nm | Size [2, 5]: 116 nm | Size distribution (PDI) [2, 5]: (0.12)

CCCCC/C=C\C/C=C\CCCCCCCCOCC(CCN(C)C)OCCCCCCCC/C=C\C/C=C\CCCCC (stereo not shown) [Example 4, N,N-dimethyl-3,4-bis[(9Z,12Z)-octadeca-9,12-dienyloxy]butan-1-amine]
% Encapsulation Efficiency [3, 7]: 97.5% | Size [4, 7]: 136.6 nm

CCCCC/C=C\C/C=C\CCCCCCCCOCC(CCN1CCN(c2ccccc2)CC1)OCCCCCCCC/C=C\C/C=C\CCCCC (stereo not shown) [Example 5, 1-{3,4-bis[(9Z,12Z)-octadeca-9,12-dienyloxy]butyl}-4-phenylpiperazine]
Size [4, 6]: 157 nm | Size distribution (PDI) [4, 6]: 0.070

CCCCC/C=C\C/C=C\CCCCCCCCOCC(CCN1CCN(C)CC1)OCCCCCCCC/C=C\C/C=C\CCCCC (stereo not shown) [Example 6, 1-{3,4-bis[(9Z,12Z)-octadeca-9,12-dienyloxy]butyl}-4-methylpiperazine]
Size [4, 6]: 178 nm | Size distribution (PDI) [4, 6]: 0.16

CCCCC/C=C\C/C=C\CCCCCCCCOCC(CCN1CCN(c2ccccc2OC)CC1)OCCCCCCCC/C=C\C/C=C\CCCCC (stereo not shown) [Example 8, 1-{3,4-bis[(9Z,12Z)-octadeca-9,12-dienyloxy]butyl}-4-(2-methoxyphenyl)piperazine]
Size [4, 6]: 130 nm

CCCCC/C=C\C/C=C\CCCCCCCCOCC(CCN(C)CCc1ccccn1)OCCCCCCCC/C=C\C/C=C\CCCCC (stereo not shown) [Example 10, N-{3,4-bis[(9Z,12Z)-octadeca-9,12-dienyloxy]butyl}-N-methyl-N-(2-pyridin-2-ylethyl)amine]
Size [4, 6]: 161 nm | Size distribution (PDI) [4, 6]: 0.168

CCCCC/C=C\C/C=C\CCCCCCCCOCC(CCN(C)Cc1ccccc1)OCCCCCCCC/C=C\C/C=C\CCCCC (stereo not shown) [Example 11, N-benzyl-N-{3,4-bis[(9Z,12Z)-octadeca-9,12-dienyloxy]butyl}-N-methylamine]
Size [4, 6]: 154 nm | Size distribution (PDI) [4, 6]: 0.2

CCCCC/C=C\C/C=C\CCCCCCCCOCC(CCN1CCC(N(C)C)CC1)OCCCCCCCC/C=C\C/C=C\CCCCC (stereo not shown) [Example 16, 1-{3,4-bis[(9Z,12Z)-octadeca-9,12-dienyloxy]butyl}-N,N-dimethylpiperidin-4-amine]
Size [4, 6]: 70.9 nm

CCCCC/C=C\C/C=C\CCCCCCCCOCC(CCN(CCOC)CCOC)OCCCCCCCC/C=C\C/C=C\CCCCC (stereo not shown) [Example 18, N,N-bis(2-methoxyethyl)-3,4-bis [(9Z,12Z)-octadeca-9,12-dienyloxy]butan-1-amine]
% Encapsulation Efficiency [3, 6]: 94.1% | Size [4, 6]: 104 nm

CCCCC/C=C\C/C=C\CCCCCCCCOCC(CCN1CCC(OC)CC1)OCCCCCCCC/C=C\C/C=C\CCCCC (stereo not shown) [Example 19, 1-{3,4-bis[(9Z,12Z)-octadeca-9,12-dienyloxy]butyl}-4-methoxypiperidine]
% Encapsulation Efficiency [3, 6]: 94.2% | Size [4, 6]: 152 nm

CCCCC/C=C\C/C=C\CCCCCCCCOC[C@@H](CCN(CC)CC)OCCCCCCCC/C=C\C/C=C\CCCCC [Example 22, N-{(3R)-3,4-bis[(9Z,12Z)-octadeca-9,12-dienyloxy]butyl}-N,N-diethylamine]
% Encapsulation Efficiency [3, 6]: 86% | Size [4, 6]: 130 nm

CCCCC/C=C\C/C=C\CCCCCCCCOC[C@H](CCN(CC)CC)OCCCCCCCC/C=C\C/C=C\CCCCC [Example 23, N-{(3S)-3,4-bis[(9Z,12Z)-octadeca-9,12-dienyloxy]butyl}-N,N-diethylamine]
% Encapsulation Efficiency [3, 6]: 97.2% | Size [4, 6]: 128 nm

CCCCC/C=C\C/C=C\CCCCCCCCOCC(CCOCCN1CCN(C)CC1)OCCCCCCCC/C=C\C/C=C\CCCCC (stereo not shown) [Example 28, 1-(2-{3,4-bis[(9Z,12Z)-octadeca-9,12-dienyloxy]butoxy}ethyl)-4-methylpiperazine]
% Encapsulation Efficiency [3, 7]: 94.3% | % Encapsulation Efficiency [1, 8]: 99% | % Encapsulation Efficiency [1, 9]: 99% | % Encapsulation Efficiency [1, 10]: 99% | Size [2, 8]: 107.1 nm | Size distribution (PDI) [2, 8]: (0.025) | Size [2, 9]: 80.2 nm | Size distribution (PDI) [2, 9]: (0.026) | Size [2, 10]: 87 nm | Size distribution (PDI) [2, 10]: (0.012)

CCCCC/C=C\C/C=C\CCCCCCCCOCC(CCOCCN1CCCC1)OCCCCCCCC/C=C\C/C=C\CCCCC (stereo not shown) [Example 31, 1-(2-{3,4-bis[(9Z,12Z)-octadeca-9,12-dienyloxy]butoxy}ethyl)pyrrolidine]
% Encapsulation Efficiency [3, 7]: 96.2% | % Encapsulation Efficiency [1, 5]: 93.3% | Size [2, 5]: 136 nm | Size distribution (PDI) [2, 5]: (0.0923)
